pIC50: −log10 of the molar value. In brackets after ≈: the same amount, converted by molar mass.
Assays:
SK-N-SH = assay: MTT assay 48 hours, SK-N-SH; assay type: cell-based; conditions: Homo sapiens
Protocol: (§1) The ability of the compounds described herein to kill or inhibit the proliferation of cancer cells was measured using either the MTT assay, the Alamar Blue assay, or the Cell Titer Glow® assay using 48 or 72 hours exposure. […] The procedures are briefly described below. Cells of the desired tumor cell line were plated at 2×10^5 cells/ml in 96 well plates. Twice the indicated concentrations of the compounds of the invention were added to cells the following day in an equal volume of media. 72 hours later, cells were lysed and subjected to ATP determination using the CellTiter Glo-Luminescent Cell Viability Assay kit (Promega, Madison, Wis.). Experiments were done in triplicate. When using the MTT assay or the Alamar blue assay, the experimental conditions are essentially similar; at the end of the incubation period, 20 microl of the MTT solution is added per well and the samples are incubated for an additional four hours, rinsed and the absorbance at 570 nm measured. Results for the inhibition of cells proliferation are reported as IC50 as commonly done (the concentration leading to a 50% inhibition of proliferation of the cell population) and are listed in the Tables below. Table 4 lists the IC50 for the compounds of the invention in several cell lines including Jurkat, Calu-6, NCI-H82, U937, or NCI-H1437 cancer cell lines. Table 5 lists the IC50 of PFK-070 in a panel of 10 cell lines.

BT474 = assay: MTT assay 48 hours, BT474; assay type: cell-based; conditions: Homo sapiens, BT-474
Protocol: as §1

CT26 = assay: MTT assay 48 hours, CT26; assay type: cell-based, murine; conditions: Mus musculus
Protocol: as §1

H22 = assay: MTT assay 48 hours, H22; assay type: cell-based; conditions: Mus musculus
Protocol: as §1

U87MG = assay: MTT assay 48 hours, U87MG; assay type: cell-based; conditions: Homo sapiens, U-87 MG
Protocol: as §1

NCI-H82 = assay: Cancer cell proliferation, Alamar Blue assay 72 hours, NCI-H82; assay type: cell-based; conditions: Homo sapiens
Protocol: as §1

MiaPaca = assay: MTT assay 48 hours, MiaPaca; assay type: cell-based; conditions: Homo sapiens, MIA PaCa-2
Protocol: as §1

NCI-H1437 = assay: Cancer cell proliferation, Alamar Blue assay 72 hours, NCI-H1437; assay type: cell-based; conditions: Homo sapiens
Protocol: as §1

Calu-6 = assay: Cancer cell proliferation, Alamar Blue assay 72 hours, Calu-6; assay type: cell-based; conditions: Homo sapiens
Protocol: as §1

BX-PC-3 = assay: MTT assay 48 hours, BX-PC-3; assay type: cell-based; conditions: Homo sapiens, BXPC-3, BX-PC-3, MTT assay
Protocol: as §1

Jurkat = assay: Cancer cell proliferation, Alamar Blue assay 72 hours, Jurkat; assay type: cell-based; conditions: Homo sapiens, Jurkat, 72 h
Protocol: as §1

LnCap = assay: MTT assay 48 hours, LnCap; assay type: cell-based; conditions: Homo sapiens
Protocol: as §1

[1] = Microsomal stability in human liver microsomes; assay type: in vitro ADME; conditions: 0 min
Protocol: Microsomal stability in vitro in different biologic media (liver microsomes, S9 fraction, hepatocytes) and species is ascertained to evaluate the rate at which a compound undergoes metabolism in the experimental in vitro conditions. […] Experimental conditions are briefly described here: the stability in human liver microsomes of several compounds was done over […] at 37° C. using pooled mixed gender human liver microsomes. These liver microsomes were prepared at 1.0 mg/ml of microsomal protein in a 100 mM potassium phosphate pH 7.4 buffer with 1 mM NADPH. The media was incubated at 37° C. with the compound in solution in DMSO. The concentration of the compound was followed by LC/MS-MS as a function of time. […] Testosterone was used as a positive control. The same experiment was performed with mouse, rat or dog liver microsomes instead of human liver microsomes.

U937 = assay: Cancer cell proliferation, Alamar Blue assay 72 hours, U937; assay type: cell-based; conditions: Homo sapiens, U-937
Protocol: as §1

Jurkat cells = assay: Inhibition of 2-deoxyglucose uptake, Example 14; assay type: cell-based; conditions: Homo sapiens, 3 hours
Protocol: Inhibition of PFKFB3 results in inhibiting glycolysis. Several feedback or feedforward activation and inhibition mechanisms exist so that, by a feedback mechanism, inhibiting the activity of PFKFB3 might inhibit glucose uptake by cells. An assay was developed to determine if there was inhibition of glucose uptake following exposure to the compounds on the invention. Briefly, Jurkat cells were plated at 1×10^5/mL in RPMI 1640 supplemented with 10% fetal bovine serum and 50 μg/mL gentamicin sulfate. Cells were immediately treated with vehicle or 0.5 μmol/L of the compound of the invention for 3 hours and subsequently placed in glucose-free RPMI 1640 for 30 min. ^14C-2-deoxyglucose (0.25 μCi/mL; Perkin Elmer) was added for an additional 60 min and cells were then washed three times with ice-cold RPMI 1640 containing no glucose. Cell lysates were collected in 500 μL of 0.1% SDS, and scintillation counts (counts/min) were measured on 400 μL of lysate. Counts were normalized to protein concentration.

A549 = assay: MTT assay 48 hours, A549; assay type: cell-based; conditions: Homo sapiens
Protocol: as §1

SK-BR-3 = assay: MTT assay 48 hours, SK-BR-3; assay type: cell-based; conditions: Homo sapiens, SK-BR-3, MTT assay
Protocol: as §1

[2] = Solubility in dosing solution Cre:EtOH:Saline; assay type: physicochemical; conditions: Cremophor:EtOH:Saline 5:5:90, aqueous with cosolvent or surfactant or cyclodextrin, kinetic from dmso stock; 5:5:90 Cremophor:EtOH:Saline, after 24 hours at room temperature
Description: Chemical properties of the compounds of the invention were investigated, mainly the solubility in several solvents and pharmaceutically accepted excipients or dosing solutions and the stability of these solutions. […] The increase in solubility when comparing the effect of chemical substituents is unpredictable and surprising if one compares the solubility values of PFK-070 to PFK-091 and PFK-070 to PFK-141 and 145 in a dosing solution that could be used to treat cancer patients (See Table 8A below). Briefly, selected compounds of the invention are dissolved in a small volume of the solvents/excipients of interest (Cremophor, or Cremophor:etoh or Tween80:etoh) at room temperature and diluted 1:9 in saline and left at room temperature for over 8 or 24 hours. Both the physical (absence of a precipitate) and the chemical stability (less than 5% degradation) of the solutions are measured (observation and HPLC after filtration).

O=C(/C=C/c1ccc2cccc(O)c2n1)c1ccncc1 [ACT-PFK-070, 3-(8-Hydroxy-quinolin-2-yl)-1-pyridin-4-yl-propenone]
pIC50 (SK-N-SH): 5.84 | pIC50 (BT474): 6.02 | pIC50 (CT26): 5.69 | pIC50 (H22): 5.40 | pIC50 (U87MG): 5.78 | pIC50 (NCI-H82): 5.40 | pIC50 (MiaPaca): 6.56 | pIC50 (NCI-H1437): 4.53 | pIC50 (Calu-6): 5.13 | pIC50 (BX-PC-3): 5.93 | pIC50 (Jurkat): 5.89 | pIC50 (LnCap): 5.89 | Mean metabolized (%) [1]: 0% | pIC50 (U937): 5.44 | inhibition at 0.5 µM (Jurkat cells): 45% | pIC50 (A549): 5.57 | pIC50 (SK-BR-3): 5.80 | solubility at 24 h [2]: 100 µg/mL (≈ 362 µM)

Source: patent US8557823B2, “Family of PFKFB3 inhibitors with anti-neoplastic activities” (Advanced Cancer Therapeutics, LLC, priority 2007, dated 2013)
